Source: patent US20050048508A1, “Trehalose receptor and method for detecting trehalose with the same” (KABUSHIKI KAISHA HAYASHIBARA SEIBUTSU KAGAKU KENKYUJO, priority 2002, published 2005)

Target: T1, T1R2 and T1R3 without G protein α-subunit (Mus musculus, UniProt Q925D8+Q925I4, E350G/G527D/I706N/P352R/R175Q)
T1 construct: expressed in transfected cells; host or cells: 293 cells, RCB 1637 (human embryonic kidney)
T1 sequence (Q925I4 20-843 R175Q/E350G/P352R/G527D): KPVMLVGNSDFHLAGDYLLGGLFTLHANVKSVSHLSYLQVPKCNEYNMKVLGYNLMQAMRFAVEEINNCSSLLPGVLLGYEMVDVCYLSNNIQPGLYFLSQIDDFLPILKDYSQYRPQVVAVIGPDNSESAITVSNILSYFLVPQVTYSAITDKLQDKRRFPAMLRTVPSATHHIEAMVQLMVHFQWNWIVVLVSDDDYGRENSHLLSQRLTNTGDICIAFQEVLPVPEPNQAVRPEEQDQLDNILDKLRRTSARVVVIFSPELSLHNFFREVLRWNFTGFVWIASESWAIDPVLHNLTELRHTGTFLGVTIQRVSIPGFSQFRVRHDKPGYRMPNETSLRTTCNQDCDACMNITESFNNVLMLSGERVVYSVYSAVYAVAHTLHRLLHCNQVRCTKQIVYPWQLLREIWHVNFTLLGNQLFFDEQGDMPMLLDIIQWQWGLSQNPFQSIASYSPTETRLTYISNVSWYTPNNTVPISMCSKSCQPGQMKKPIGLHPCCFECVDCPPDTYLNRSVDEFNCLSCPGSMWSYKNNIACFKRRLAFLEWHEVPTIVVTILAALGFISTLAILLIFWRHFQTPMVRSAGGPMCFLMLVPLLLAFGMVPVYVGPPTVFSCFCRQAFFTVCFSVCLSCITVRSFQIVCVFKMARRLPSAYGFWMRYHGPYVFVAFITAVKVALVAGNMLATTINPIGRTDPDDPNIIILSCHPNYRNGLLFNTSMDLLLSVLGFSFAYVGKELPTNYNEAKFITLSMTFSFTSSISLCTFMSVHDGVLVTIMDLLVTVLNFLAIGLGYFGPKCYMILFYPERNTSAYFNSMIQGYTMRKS
T1 sequence (Q925D8 21-858 I706N): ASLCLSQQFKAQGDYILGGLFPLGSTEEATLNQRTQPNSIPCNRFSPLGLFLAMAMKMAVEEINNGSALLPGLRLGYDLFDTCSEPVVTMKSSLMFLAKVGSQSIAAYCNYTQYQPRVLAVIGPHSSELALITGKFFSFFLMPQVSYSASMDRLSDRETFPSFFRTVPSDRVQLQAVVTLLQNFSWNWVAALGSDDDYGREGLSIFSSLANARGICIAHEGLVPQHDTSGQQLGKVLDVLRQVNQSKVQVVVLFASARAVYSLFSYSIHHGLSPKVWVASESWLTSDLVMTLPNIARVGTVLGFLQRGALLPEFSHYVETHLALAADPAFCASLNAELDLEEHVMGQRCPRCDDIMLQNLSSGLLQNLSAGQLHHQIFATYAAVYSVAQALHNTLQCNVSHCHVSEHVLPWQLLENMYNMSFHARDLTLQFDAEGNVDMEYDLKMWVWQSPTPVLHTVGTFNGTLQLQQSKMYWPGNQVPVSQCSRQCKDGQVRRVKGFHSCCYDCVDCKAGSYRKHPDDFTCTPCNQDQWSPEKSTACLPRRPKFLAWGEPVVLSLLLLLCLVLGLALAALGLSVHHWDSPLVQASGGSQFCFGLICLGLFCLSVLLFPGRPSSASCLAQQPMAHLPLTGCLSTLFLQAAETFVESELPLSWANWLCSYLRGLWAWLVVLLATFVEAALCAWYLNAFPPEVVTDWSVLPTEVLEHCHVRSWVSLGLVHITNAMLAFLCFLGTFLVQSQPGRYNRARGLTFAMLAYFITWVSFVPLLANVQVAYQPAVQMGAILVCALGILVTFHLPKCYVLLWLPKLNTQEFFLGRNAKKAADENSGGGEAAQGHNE
Assay: Intracellular calcium ion assay, 293 cells expressing T1R2 and T1R3 without G protein α-subunits
Type: cell-based
Conditions: 293 cells: T1R2 + T1R3, no G protein α-subunit; 0.67 ml of 1 M saccharide solution added to 2 ml cell suspension

SMILES	Influx of calcium ion
OC[C@H]1O[C@@](CO)(O[C@H]2O[C@H](CO)[C@@H](O)[C@H](O)[C@H]2O)[C@@H](O)[C@@H]1O [Sucrose, reference compound]	Negative
OC[C@H]1O[C@H](O[C@H]2O[C@H](CO)[C@@H](O)[C@H](O)[C@H]2O)[C@H](O)[C@@H](O)[C@@H]1O [Trehalose]	Negative
